Measurements: PubChem BioAssay (NCI)
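GI50 = concentration required for 50% inhibition of growth. At the TGI there is no net growth.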

Assays:
Assay in all cases: inhibition of tumour cell growth, NCI panel, 384-well format
786-0 renal = tested on: 786-0 renal
A498 renal = tested on: A498 renal
A549 NSCLC = tested on: A549 NSCLC
ACHN renal = tested on: ACHN renal
BT-549 breast = tested on: BT-549 breast
CAKI-1 renal = tested on: CAKI-1 renal
CCRF-CEM leukemia = tested on: CCRF-CEM leukemia
COLO 205 colon = tested on: COLO 205 colon
DU-145 prostate = tested on: DU-145 prostate
EKVX NSCLC = tested on: EKVX NSCLC
HCC-2998 colon = tested on: HCC-2998 colon
HCT-116 colon = tested on: HCT-116 colon
HCT-15 colon = tested on: HCT-15 colon
HL-60(TB) leukemia = tested on: HL-60(TB) leukemia
HOP-62 NSCLC = tested on: HOP-62 NSCLC
HOP-92 NSCLC = tested on: HOP-92 NSCLC
HS 578T breast = tested on: HS 578T breast
HT29 colon = tested on: HT29 colon
IGROV1 ovarian = tested on: IGROV1 ovarian
KM12 colon = tested on: KM12 colon
LOX IMVI melanoma = tested on: LOX IMVI melanoma
M14 melanoma = tested on: M14 melanoma
MALME-3M melanoma = tested on: MALME-3M melanoma
MCF7 breast = tested on: MCF7 breast
MDA-MB-231 breast = tested on: MDA-MB-231 breast
MDA-MB-435 melanoma = tested on: MDA-MB-435 melanoma
MDA-MB-468 breast = tested on: MDA-MB-468 breast

## CCN1C(=O)N(c2c(F)c(OC)cc(OC)c2F)Cc2cnc3[nH]c(CN4CCOCC4)cc3c21
786-0 renal
  GI50: 6.99 µM
  TGI: > 100 µM
A498 renal
  GI50: 2.03 µM
  TGI: 57.3 µM
A549 NSCLC
  GI50: 4.69 µM
  TGI: > 31.6 µM
ACHN renal
  GI50: 3.86 µM
  TGI: > 100 µM
BT-549 breast
  GI50: 0.0807 µM
  TGI: 7.02 µM
CAKI-1 renal
  GI50: 1.03 µM
  TGI: > 31.4 µM
CCRF-CEM leukemia
  GI50: 5.26 µM
COLO 205 colon
  GI50: > 100 µM
  TGI: > 100 µM
DU-145 prostate
  GI50: 3.85 µM
  TGI: > 100 µM
EKVX NSCLC
  GI50: > 81 µM
  TGI: > 100 µM
HCC-2998 colon
  GI50: 6.61 µM
  TGI: > 100 µM
HCT-116 colon
  GI50: 3.84 µM
  TGI: > 100 µM
HCT-15 colon
  GI50: 3.17 µM
  TGI: > 100 µM
HL-60(TB) leukemia
  GI50: 3.28 µM
  TGI: 12.5 µM
HOP-62 NSCLC
  GI50: 4.98 µM
  TGI: > 100 µM
HOP-92 NSCLC
  GI50: 3.5 µM
  TGI: 23.6 µM
HS 578T breast
  GI50: 1.06 µM
  TGI: 5.82 µM
HT29 colon
  GI50: 6.48 µM
IGROV1 ovarian
  GI50: 4.55 µM
  TGI: > 100 µM
KM12 colon
  GI50: 9.71 µM
  TGI: > 31.6 µM
LOX IMVI melanoma
  GI50: 4.03 µM
  TGI: > 31.5 µM
M14 melanoma
  GI50: 5.19 µM
  TGI: > 100 µM
MALME-3M melanoma
  GI50: 4.24 µM
  TGI: > 30.1 µM
MCF7 breast
  GI50: > 60.4 µM
  TGI: > 100 µM
MDA-MB-231 breast
  GI50: 6.15 µM
  TGI: 43.5 µM
MDA-MB-435 melanoma
  GI50: > 100 µM
  TGI: > 100 µM
MDA-MB-468 breast
  GI50: 3.64 µM
  TGI: 9.09 µM
